The record followed here is patent US8163779B2, “Glucokinase activators” (Takeda San Diego, Inc., priority 2006, dated 2012).

The test has as its target T1, glucokinase (GK) (Homo sapiens, UniProt P35557).
T1 construct: I.D. No. 1 corresponds to residues 12-465 of glucokinase; made in house; host or cells: E. coli DH10b-T1r
T1 sequence (P35557 with tags, fused parts or gaps isoform P35557-2): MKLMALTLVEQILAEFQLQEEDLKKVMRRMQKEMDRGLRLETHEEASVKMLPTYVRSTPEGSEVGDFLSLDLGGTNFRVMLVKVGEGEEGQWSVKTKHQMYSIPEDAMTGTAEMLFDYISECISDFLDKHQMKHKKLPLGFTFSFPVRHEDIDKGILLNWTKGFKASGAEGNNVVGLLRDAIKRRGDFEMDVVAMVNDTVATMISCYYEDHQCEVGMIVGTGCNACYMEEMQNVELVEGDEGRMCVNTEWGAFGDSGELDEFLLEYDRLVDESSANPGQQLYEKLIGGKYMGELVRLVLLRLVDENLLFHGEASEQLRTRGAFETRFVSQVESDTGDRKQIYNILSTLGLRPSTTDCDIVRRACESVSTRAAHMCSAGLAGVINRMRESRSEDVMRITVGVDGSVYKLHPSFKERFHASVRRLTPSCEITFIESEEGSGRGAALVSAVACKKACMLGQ
Nature of the test: enzymatic glucokinase activity assay (ATP consumption, KinaseGlo luminescence). It counts as biochemical. The following applies: recombinant GK residues 12-465; 5 μM ATP, 5 mM Glucose; Kact = concentration that displays 50% of the maximal increase in GK activity; read-out: pKact. A digest of the protocol:
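Recombinant human glucokinase expressed in E. coli was run in 25 mM Hepes pH 7.2 with 10 mM MgCl2, 1 mM DTT, 5 μM ATP, 5 mM glucose and 2% DMSO for 60 min at room temperature. Remaining ATP was read by KinaseGlo luminescence; pKact came from non-linear curve fits.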
On the technique in general: Kinase-Glo measures the ATP left after a reaction by luminescence.
On to `O=C(Nc1ncc(F)s1)C(CC1CCOCC1)n1cc(Cl)c(S(=O)(=O)C2CCCC2)cc1=O` (stereo not shown) [Example 186, 2-(5-chloro-4-(cyclopentylsulfonyl)-2-oxopyridin-1(2H)-yl)-N-(5-fluorothiazol-2-yl)-3-(tetrahydro-2H-pyran-4-yl)propanamide], for which the EC50 is 1.58 to 15.8 µM.

For `Cc1cc(S(=O)(=O)C2CCS(=O)(=O)CC2)cc(=O)n1[C@@H](CC1CCCCC1)C(=O)Nc1ncc(Cl)s1` [Example 187, (S)-N-(5-chlorothiazol-2-yl)-2-(4-(1,1-dioxotetrahydrothiopyran-4-ylsulfonyl)-6-methyl-2-oxopyridin-1(2H)-yl)-3-cyclohexyipropanamide], the EC50 fell in the range of 1.58 to 15.8 µM.

Consider `Cc1cc(S(=O)(=O)C2CCS(=O)(=O)CC2)cc(=O)n1[C@H](CC1CCCCC1)C(=O)Nc1ncc(Cl)s1` [Example 188, (R)-N-(5-chlorothiazol-2-yl)-2-(4-(1,1-dioxotetrahydrothiopyran-4-ylsulfonyl)-6-methyl-2-oxopyridin-1(2H)-yl)-3-cyclohexylpropanamide], for which the EC50 is over 15.8 µM.

Take `Cc1cc(S(=O)(=O)c2cccc(F)c2)cc(=O)n1[C@@H](CC1CCOCC1)C(=O)Nc1ncc(F)s1` [Example 189, (S)-2-(4-(3-fluorophenylsulfonyl)-6-methyl-2-oxopyridin-1(2H)-yl)-N-(5-fluorothiazol-2-yl)-3-(tetrahydro-2H-pyran-4-yl)propanamide]: the EC50 fell in the range of 1.58 to 15.8 µM.

As for `Cc1cc(S(=O)(=O)c2cccc(F)c2)cc(=O)n1[C@H](CC1CCOCC1)C(=O)Nc1ncc(F)s1` [Example 190, (R)-2-(4-(3-fluorophenylsulfonyl)-6-methyl-2-oxopyridin-1(2H)-yl)-N-(5-fluorothiazol-2-yl)-3-(tetrahydro-2H-pyran-4-yl)propanamide], the EC50 was over 15.8 µM.

For the compound `Cc1cc(S(=O)(=O)C2CCOCC2)cc(=O)n1[C@@H](CC1CCCC1)C(=O)Nc1ncc(Cl)s1` [Example 191, (S)-N-(5-chlorothiazol-2-yl)-3-cyclopentyl-2-(6-methyl-2-oxo-4-(tetrahydro-2H-pyran-4-ylsulfonyl)pyridin-1(2H)-yl)propanamide], the EC50 was in the range of 1.58 to 15.8 µM.

Regarding `Cc1cc(S(=O)(=O)C2CCOCC2)cc(=O)n1[C@H](CC1CCCC1)C(=O)Nc1ncc(Cl)s1` [Example 192, (R)-N-(5-chlorothiazol-2-yl)-3-cyclopentyl-2-(6-methyl-2-oxo-4-(tetrahydro-2H-pyran-4-ylsulfonyl)pyridin-1(2H)-yl)propanamide], the EC50 is over 15.8 µM.

On to `Cc1cc(S(=O)(=O)C2CCOCC2)cc(=O)n1[C@@H](CC1CCCC1)C(=O)Nc1ncc(F)s1` [Example 193, (S)-3-cyclopentyl-N-(5-fluorothiazol-2-yl)-2-(6-methyl-2-oxo-4-(tetrahydro-2H-pyran-4-ylsulfonyl)pyridin-1(2H)-yl)propanamide], for which the EC50 was in the range of 1.58 to 15.8 µM.

As to `Cc1cc(S(=O)(=O)C2CCOCC2)cc(=O)n1[C@H](CC1CCCC1)C(=O)Nc1ncc(F)s1` [Example 194, (R)-3-cyclopentyl-N-(5-fluorothiazol-2-yl)-2-(6-methyl-2-oxo-4-(tetrahydro-2H-pyran-4-ylsulfonyl)pyridin-1(2H)-yl)propanamide], the EC50 is over 15.8 µM.

`O=C(Nc1ncc(Cl)s1)[C@@H](CC1CCOCC1)n1cc(Cl)c(S(=O)(=O)C2CC2)cc1=O` [Example 195, (R)-2-(5-chloro-4-(cyclopropylsulfonyl)-2-oxopyridin-1(2H)-yl)-N-(5-chlorothiazol-2-yl)-3-(tetrahydro-2H-pyran-4-yl)propanamide]: the EC50 is over 15.8 µM.

Regarding `O=C(Nc1ncc(Cl)s1)[C@H](CC1CCOCC1)n1cc(Cl)c(S(=O)(=O)C2CC2)cc1=O` [Example 196, (S)-2-(5-chloro-4-(cyclopropylsulfonyl)-2-oxopyridin-1(2H)-yl)-N-(5-chlorothiazol-2-yl)-3-(tetrahydro-2H-pyran-4-yl)propanamide], the EC50 is 1.58 to 15.8 µM.

As for `O=C(Nc1ncc(F)s1)[C@@H](CC1CCOCC1)n1cc(Cl)c(S(=O)(=O)C2CC2)cc1=O` [Example 197, (R)-2-(5-chloro-4-(cyclopropylsulfonyl)-2-oxopyridin-1(2H)-yl)-N-(5-fluorothiazol-2-yl)-3-(tetrahydro-2H-pyran-4-yl)propanamide], the EC50 is over 15.8 µM.

On to `O=C(Nc1ncc(F)s1)[C@H](CC1CCOCC1)n1cc(Cl)c(S(=O)(=O)C2CC2)cc1=O` [Example 198, (S)-2-(5-chloro-4-(cyclopropylsulfonyl)-2-oxopyridin-1(2H)-yl)-N-(5-fluorothiazol-2-yl)-3-(tetrahydro-2H-pyran-4-yl)propanamide], for which the EC50 was 1.58 to 15.8 µM.
